In US10287616B2, “Label free biosensors, gram-negative bacteria detection, and real-time and end point determination of antibiotic effects” (priority 2015, dated 2019):
Several values for one entry are separate records, joined by “and”; a condition that tells them apart may be missing. Equal values may be shown once. Read-outs that look alike come from different tables or passages of the source.

Key:
E. coli = details: cited from earlier work; for Previously Reported Minimum Inhibitory Concentration (MIC, mg/L): different strains
E. coli W1485 [1] = details: for bacterial (LPS) binding reduced to, frequency shift normalized to control / ΔR (Ω) / ΔR/R0 (%): 18 hours
Procedure: The gold QCM electrode consisted of a thin AT-cut quartz crystal wafer with vapor deposited gold electrode on each side (10 MHz, non-polished with 1000 A gold, geometric area is 0.22 cm2, International Crystal Company). For all QCM test, the gold electrode was mounted on the side of a KeI-F cell chamber. Frequency monitoring was performed using a Maxtek RQCM quartz crystal microbalance research instrument. Baseline was recorded in 1 mL of 10 mM HEPES buffer containing 1 mM Ca^2+ and 1 mM Mn^2+. Each of the bacterial samples to be analyzed was then added into the detection sensor cell after stabilization of resonance frequency (shift less than 1 Hz·min-1). A small magnetic stir bar was used to increase the mass transfer through convection. The frequency changes (ΔF) of the QCM were monitored using a network/spectrum/impedance analyzer (Agilent 4395A) controlled by a PC via an Intel card.
In the end point measurement, four samples containing 2×10^5 cells/mL of E. coli obtained from log phase in fresh LB culture were prepared. […] The four samples were incubated for 18 hours, 37° C., 280 rpm on an orbital environmental shaker. Finally, 1 μL of the E. coli culture from the each prepared sample was introduced to the Con A biosensor in 1 mL of 10 mM HEPES buffer (pH 7.4) for QCM and electrochemical biosensor measurements, respectively. The sample without addition of any antibiotic was used as control.
The concentrations used were based on the literature and current clinically used dosages. The sample without any antibiotic was used as a control. As mentioned above, E. coli W1485 was used as the model Gram-negative bacterial analyte. E. coli W1485 is a “semirough” bacterial strain in which the intact LPS core is capped by a single O-antigen subunit consisting of glucose, N-acetylglucosamine, galactose, and rhamnose in the ratio 1.8:1.0:0.7:0.6, which has been confirmed by the sodium dodecyl sulfate polyacrylamide gel electrophoresis (SDS-PAGE) method. Con A binds specifically at α-D-mannosyl and α-D-glucosyl residues (two hexoses differing only by the alcohol on carbon 2) in the terminal position of ramified structures from β-glycans (reach in α-mannose, or hybrid and biantennary glycanes complexes).
Here the QCM frequency shift is because of the mass loading on the QCM surface due to bacterial adhesion and the change of damping resistance is a result of increasing softness of the interface which causes the damping of the oscillation wave.

E. coli W1485 [2] = details: for ΔR (Ω) / ΔR/R0 (%): 3 hours; for ΔF (Hz): FIG. 26
Procedure: (§1) Experiments were also performed to study the concentration of the antibiotics and the length of the incubation time of antibiotics for their ability to kill or inhibit the growth of the bacteria. Different concentrations of each antibiotic were added to 5×10^8 cells/mL E. coli respectively, and then incubated at 37° C. and 280 rpm on the shaker. After 3 hours of incubation, 1 μL of antibiotic treated E. coli culture was added to the Con A sensor cell containing 1 mL of 10 mM HEPES buffer (pH 7.4) for QCM measurements, respectively. […] 1 μL of each antibiotic treated E. coli was taken at different incubation times (i.e., 0, 1, 2, 3 hours) and was added into the Con A senor cell containing 1 mL of 10 mM HEPES buffer (pH 7.4) for QCM measurements.
Because antibiotics from different classes have different mechanisms of action and antibiotic effects on bacterial morphology and viability are concentration and time dependent, it was hypothesized that the ability of antibiotics to kill the bacteria or inhibit its growth may be class and concentration dependent, which will affect the interaction between the LPS and Con A sensor. To further study the effects of concentration and length of incubation time on the bactericidal activities of antibiotics, different concentration of antibiotics were added into the broth containing E. coli and incubated for different lengths of times. […] FIGS. 26D through 26F show the histogram of ΔF or ΔR changes vs antibiotics with different concentrations that are again correlated to each other with ceftriaxone showing consistent increase in resistance with increasing its concentration. This is probably due to more and more cell lysis, thereby intensifying the fluidic environment.
To further compare the effect of concentrations on the bactericidal activities of the antibiotics, the binding kinetics between Con A sensor and E. coli were studied. The binding between Con A sensor and E. coli can be described by eq 2. [Con Aattached to gold]+[E. coli]→[E. coli/Con Aattached to gold] (2)
The amount of the complex E. coli/Con A formed at time t after the injection is given by eqs 3 and […], where ΔMmax is the maximum binding amount of E. coli/Con A, ΔM is the measured binding amount, and t is the time after injection. τ is the relaxation time associated with E. coli binding, which is calculated from curve fittings of the ΔF during the binding process. A higher τ value means a longer binding time is required between the Con A and E. coli.

E. coli W1485 [3] = details: for ΔF (Hz): 10 mg/L antibiotic, FIG. 27; for ΔR (Ω) / ΔR/R0 (%): 10 mg/L
Procedure: as §1
In most studies dealing with antibiotic-induced LPS release, bioreactive endotoxin has been measured by means of the Limulus amoebocyte lysate (LAL) assay, which involves an enzymatic reaction triggered by the core region of LPS. […] However, some antibiotics (i.e., aminoglycoside) are known to suppress the LAL reaction, which limits the application of LAL. Reproducible ELISA also can be used to detect LPS. […] A QCM is known to provide a very sensitive mass measuring device and dispense with the time- and cost-demanding labeling step and also eliminates any possible interference of the “true” binding process due to the presence of the labels.

[4] = E. coli binding to Con A sensor after 1 mg/L antibiotic
[5] = E. coli binding to Con A sensor after 10 mg/L antibiotic
[6] = E. coli binding to Con A sensor after 30 mg/L antibiotic

SMILES	Previously Reported Minimum Inhibitory Concentration (MIC, mg/L) (E. coli) [mg/L]	ΔR (Ω) (E. coli W1485 [1]; 0.1 mg/L antibiotic, FIG. 24A)	ΔR/R0 (%) (E. coli W1485 [1]; 0.1 mg/L antibiotic, FIG. 24A)	ΔR (Ω) (E. coli W1485 [2]; 1 mg/L antibiotic)	ΔR/R0 (%) (E. coli W1485 [2]; 1 mg/L antibiotic)	ΔR (Ω) (E. coli W1485 [2]; 10 mg/L antibiotic)	ΔR/R0 (%) (E. coli W1485 [2]; 10 mg/L antibiotic)	ΔR (Ω) (E. coli W1485 [2]; 30 mg/L antibiotic)	ΔR/R0 (%) (E. coli W1485 [2]; 30 mg/L antibiotic)	relaxation time τ (E. coli W1485 [2]; [4]) [min]	relaxation time τ (E. coli W1485 [2]; [5]) [min]	relaxation time τ (E. coli W1485 [2]; [6]) [min]	ΔR (Ω) (E. coli W1485 [3]; 0 h)	ΔR/R0 (%) (E. coli W1485 [3]; 0 h)	ΔR (Ω) (E. coli W1485 [3]; 1 h)	ΔR/R0 (%) (E. coli W1485 [3]; 1 h)	ΔR (Ω) (E. coli W1485 [3]; 2 h)	ΔR/R0 (%) (E. coli W1485 [3]; 2 h)	ΔR (Ω) (E. coli W1485 [3]; 3 h)	ΔR/R0 (%) (E. coli W1485 [3]; 3 h)	also measured
CO/N=C(\C(=O)N[C@@H]1C(=O)N2C(C(=O)O)=C(CSc3nc(=O)c(=O)[nH]n3C)CS[C@H]12)c1csc(N)n1 [ceftriaxone]	0.024 to 0.195	6 Ω	2.0	16 Ω	5.2	16.5 Ω	5.4	18 Ω	5.8	15.5	18.4	22.5	15 Ω	4.9	15.5 Ω	5.0	16.1 Ω	5.2	16.6 Ω	5.4	MIC (E. coli; E. coli (47)): 0.0125 to 25 µg/mL; MIC (E. coli; E. coli (305)): 0.06 to 8 µg/mL; bacterial (LPS) binding reduced to, frequency shift normalized to control (E. coli W1485 [1]; 0.1 mg/L antibiotic): 27%; bacterial (LPS) binding reduced to, frequency shift normalized to control (E. coli W1485 [1]; 0.1 mg/L antibiotic, listed as Ceftriaxone): 27%; ΔF (Hz) (E. coli W1485 [1]; log phase E. coli incubated 18 hours, 37° C. with 0.1 mg/L antibiotic, FIG. 24A): 87 Hz; ΔF (Hz) (E. coli W1485 [3]; incubation time 0 h): 356 Hz; ΔF (Hz) (E. coli W1485 [3]; incubation time 1 h): 256 Hz; ΔF (Hz) (E. coli W1485 [3]; incubation time 2 h): 223 Hz; ΔF (Hz) (E. coli W1485 [3]; incubation time 3 h): 187 Hz
O=C(O)c1cn(C2CC2)c2cc(N3CCNCC3)c(F)cc2c1=O [ciprofloxacin]	0.0075 to 0.015	8 Ω	2.6	14.5 Ω	4.7	10.5 Ω	3.4	10.6 Ω	3.5	21	23.5	23.6	15 Ω	4.9	17 Ω	5.6	18.6 Ω	6.1	14 Ω	4.6	most effective concentration to act against this bacterial strain (E. coli W1485 [2]; no big change in ΔF from 10 to 30 mg/L): 10 mg/L
CN(C)[C@@H]1C(O)=C(C(N)=O)C(=O)[C@@]2(O)C(O)=C3C(=O)c4c(O)cccc4[C@@](C)(O)[C@H]3C[C@@H]12 [tetracycline]	–	–	–	16.3 Ω	5.3	17.2 Ω	5.6	14.5 Ω	4.7	–	–	–	16 Ω	5.3	17 Ω	5.6	16 Ω	5.2	15.6 Ω	5.1	ΔR (Ω) (E. coli W1485 [1]; 10 mg/L antibiotic, FIG. 24A): 7.2 Ω; ΔR/R0 (%) (E. coli W1485 [1]; 10 mg/L antibiotic, FIG. 24A): 2.3%; ΔF (Hz) (E. coli W1485 [2]; pretreated 3 hours with 10 mg/L antibiotic): 200 Hz and 212 Hz; ΔF (Hz) (E. coli W1485 [2]; pretreated 3 hours with 30 mg/L antibiotic): 160 Hz; ΔF (Hz) (E. coli W1485 [2]; stationary phase E. coli pretreated 3 hours with 1 mg/L antibiotic): 260 Hz and 262 Hz; ΔF (Hz) (E. coli W1485 [3]; incubation time 0 h): 378 Hz; ΔF (Hz) (E. coli W1485 [3]; incubation time 1 h): 329 Hz; ΔF (Hz) (E. coli W1485 [3]; incubation time 2 h): 279 Hz; ΔF (Hz) (E. coli W1485 [3]; incubation time 3 h): 244 Hz
